Experimental findings from patent US20230255954A1, “INTERLEUKIN 33 (IL-33) INHIBITION FOR TREATMENT OF CANCER, FIBROSIS AND INFLAMMATION” (The General Hospital Corporation, priority 2020, published 2023) are described below.

Assay [1] relates to Pam212 cells. Description: Ki67+ proliferating Pam212 cells. Format: cell-based, mouse.
Assay [2] has as its system Pam212 cells. Description: Pam212 proliferation assay (CellTiter 96). Format: cell-based, mouse. To be noted: 10 μM SB431542 for 3 hours; to the same degree as knocking down IL-33. The procedure: Pam212 cells were transfected with siIl33 (QIAGEN, catalog no. SI00870443) or siCon (QIAGEN, catalog no. 1022076) using Lipofectamine RNAiMax Transfection reagent (Thermo Fisher Scientific, catalog no. 13778075) according to the manufacturer's instructions. The following day, cells were divided into 96 well plates with a serial dilution of cells. The next day, the cells were treated with 5 nM of TGF-β (Cell Signaling Technology, catalog no. 5231LF) or 10 μM of SB431542 for 3 hours. After incubation, the proliferation assay was performed by CellTiter 96 Non-radioactive Cell proliferation assay (Promega, Madison, Wis., catalog no. G4001) according to the manufacturer's instructions. O.D was recorded as the measure of cell proliferation in each well. Absorbance (O.D) reading is directly proportional to the cell proliferation in each well.

The test system of assay [3] is DMBA/TPA skin tumors in WT and K14-IL33tg,ST2KO mice. The assay can be described thus: DMBA/TPA skin carcinogenesis protocol with SB431542. The class given is in vivo, mouse. On the procedure:
For DMBA/DNFB carcinogenesis protocol (Ameri et al., 2019), four- to six-week-old male and female mice were shaved on their abdomen and sensitized to 50 μL 0.5% DNFB. Two days later, mice were re-sensitized to 50 μL 0.25% DNFB on the abdomen. Five days later, mice were treated with […] 7,12-dimethylbenz(a)anthracene (DMBA, Millipore Sigma, catalog no. D3254) in 200 μL acetone on their back skin. After a week, mice were challenged with 100 μL 0.25% DNFB on their back skin, which was continued three times per week for 30 weeks at the dosage that maintained mild erythematous dermatitis in WT mice. Skin rash and tumor development were monitored and recorded weekly over the duration of the study. For DMBA/TPA carcinogenesis protocol, mice were treated with 6 μg 12-O-tetradecanoylphorbol-13-acetate (TPA, Millipore Sigma, catalog no. P1585) in 200 μL acetone instead of DNFB in DMBA/DNFB protocol without abdominal sensitization.
(§1) To inhibit the TGF-β/SMAD signaling pathway (Mordasky Markell et al, 2010), mice were treated with 10 μM SB431542 (Millipore Sigma, catalog no. 301836-41-9) in 200 μL acetone or 200 μL acetone alone to their back skin twice a week. SB431542/acetone treatments were given in between TPA or DNFB doses.
(§2) Tissue samples were collected and fixed in 4% paraformaldehyde (Millipore Sigma, catalog no. P6148) overnight at 4° C. Next, tissues were dehydrated in ethanol, processed and embedded in paraffin. 5 μm sections paraffin-embedded tissues were placed on slides, deparaffinized and stained with H&E. For immunohistochemistry, antigen retrieval was performed in 500 μL of antigen unmasking solution (VECTOR Laboratories, Burlingame, Calif., catalog no. H3300) diluted in 50 mL water using Cuisinart pressure cooker for 20 min at high pressure. Slides were washed three times for three minutes each in 1×TBS with 0.025% Triton X-100. Sections were blocked with 1% bovine serum albumin (Thermo Fisher Scientific, catalog no. BP1600) and 5% goat serum (Millipore Sigma, catalog no. G9023) for 1 hour. Slides were stained overnight at 4° C. with a primary antibody diluted in TBS containing 1% BSA (Table A). The following day, slides were washed as above and incubated in 100 μL biotinylated secondary antibody (VECTOR Laboratories, catalog no. PK-6200) for 30 min. After washing, slides were incubated with 100 μL mixture of reagent A and B from VECTASTAIN Elite ABC universal kit Peroxidase (VECTOR Laboratories, catalog no. PK-6200) for 30 min. After washing, slides were incubated with 100 μL ImmPACT DAB chromogen stating (VECTOR Laboratories, catalog no. SK-4105) for a few minutes. Finally, slides were dehydrated in ethanol and xylene and mounted with a coverslip using 3 drops of mounting media. For immunofluorescence staining, rehydrated tissue sections were permeated with 1×PBS supplemented with 0.2% Triton X-100 for 5 min. Antigen retrieval was performed similar to immunohistochemistry. Slides were washed three times for three minutes each in 1×PBS with 0.1% TWEEN20. Sections were blocked with 1% bovine serum albumin and 5% goat serum for 1 hour. The slides were stained overnight at 4° C. with primary antibodies (Table A). The following day, slides were washed as above and incubated for two hours at room temperature with secondary antibodies conjugated to fluorochromes (Table A). Next, slides were incubated with 1:2000 DAPI (Thermo Fisher Scientific, catalog no. D3571) for five minutes at room temperature, then washed as above. Slides were mounted with Prolong Gold Antifade Reagent (Thermo Fisher Scientific, catalog no. P36930). The number of positive cells was counted in randomly selected high power field (HPF, 200× magnification) images in a blinded manner by a trained investigator. Clinical samples were reviewed by a pathologist.

Assay [4] relates to DNFB-treated WT and IL-33KO mice skin. Description: DNFB chronic skin inflammation with SB431542. To be noted: 22 days. Format: in vivo, mouse. On the procedure: Four- to six-week-old male and female mice were shaved on their abdomen and sensitized to 50 μL 0.5% 1-Fluoro-2,4-dinitrobenzene (DNFB, Millipore Sigma, St. Louis, Mo., catalog no. 42085) dissolved in acetone plus olive oil at a 3:1 ratio (refer to as acetone). Two days after first sensitization, mice were re-sensitized to 50 μL 0.25% DNFB on their abdomen. After 5 days, mice were challenged with 100 μL 0.25% DNFB on their back skin, which was repeated three times per week for 22 days. The skin rash was monitored over the duration of the study.
as §1
as §2, with “Sections were blocked with 1% bovine serum albumin and 5% goat serum for 1 hour. The slides were stained overnight at 4° C. with primary antibodies (Table A). The following day, slides were washed as above and incubated for two hours at room temperature with secondary antibodies conjugated to fluorochromes (Table A). Next, slides were incubated with 1:2000 DAPI (Thermo Fisher Scientific, catalog no. D3571) for five minutes at room temperature, then washed as above. Slides were mounted with Prolong Gold Antifade Reagent (Thermo Fisher Scientific, catalog no. P36930).” left out, “Clinical samples were reviewed by a pathologist.” left out

Setting [5] is: DMBA/TPA-treated K14-IL33tg,ST2KO skin, vs acetone-treated controls.
The mark [6] stands for this setting: K14-IL33tg,ST2KO mice, DMBA/TPA, vs acetone-treated.
Setting [7] is: WT mice, 30-week DMBA/TPA treatment.

For `NC(=O)c1ccc(-c2nc(-c3ccc4c(c3)OCO4)c(-c3ccccn3)[nH]2)cc1` [SB431542], the “Ki67+ proliferating cells” value with Pam212 cells [1] is given as “significantly reduced”. In addition, the Pam212 cell proliferation result in the assay on Pam212 cells [2] was “reduced”. Also, the “apoptosis (cleaved caspase-3)” value in assay [3] (DMBA/TPA-treated K14-IL33tg,ST2KO skin) was “without impacting”. For the same compound, in assay [3] (setting [5]), the “number of Ki67+ epidermal keratinocytes” value was “reduced” and the “number of p-SMAD2/3+ epidermal keratinocytes” value is on record as “reduced”. Further, in assay [3] (setting [6]), the “number of skin tumors” value is “significantly fewer” and the tumor latency result was “markedly increased”. The skin tumor size entry in assay [3] (K14-IL33tg,ST2KO mice, DMBA/TPA, vs controls) was “smaller”. In assay [3] (setting [7]), the endpoint tumor volumes result is recorded as “no significant impact”, the skin tumor onset result is recorded as “no significant impact” and the “tumor numbers over time” value is given as “no significant impact”. Also, in assay [4] (DNFB-treated IL-33KO mice), the epidermal hyperplasia result is reported as “no impact” and the keratinocyte proliferation entry is “no impact”. For the same compound, the keratinocyte proliferation entry in assay [4] (DNFB-treated WT mice) is reported as “markedly decreased”. The epidermal hyperplasia entry in assay [4] (DNFB-treated WT mice, 10 μM SB431542 in 200 μL acetone twice a week) is listed as “markedly decreased”.
